Among the data in ChEMBL document CHEMBL3046897, “Synthesis of 3-{4-[4-dimethylamino-6-(4-methyl-2-oxo-2H-chromen-7-yloxy)-[1,3,5]triazin-2-ylamino]-phenyl}-2-phenyl-5-(4-pyridin-2-yl-piperazin-1-ylmethyl)-thiazolidin-4-one and their biological evaluation” (2012) are Activity, MIC and zone of inhibition values, retold here.

Each structure is given as a SMILES string. Converted amounts (≈) assume the structure as drawn. The source made the active and inactive calls.

Experiment [1] relates to Klebsiella pneumoniae. Put plainly: Antibacterial activity against Klebsiella pneumoniae at 100 ug/ml after 24 hr by agar streak dilution method. Format: functional, organism-based.
The subject of experiment [2] is Shigella flexneri. Put plainly: Antibacterial activity against Shigella flexneri after 24 hr by agar streak dilution method. Format: functional.
Experiment [3] deals with Proteus vulgaris. Put plainly: Antibacterial activity against Proteus vulgaris after 24 hr by agar streak dilution method. Format: functional.
For experiment [4], the system named is Salmonella typhi. Put plainly: Antibacterial activity against Salmonella enterica subsp. enterica serovar Typhi after 24 hr by agar streak dilution method. Format: functional.
In experiment [5] the test system is Aspergillus clavatus. Put plainly: Antifungal activity against Aspergillus clavatus at 100 ug/disc after 48 hr by paper disk diffusion method. Format: functional. Conditions: read-out: IZ. Background: A growth-free zone around the sample is the usual read-out of agar diffusion tests.
Experiment [6] has as its system Aspergillus niger. Put plainly: Antifungal activity against Aspergillus niger at 100 ug/disk after 48 hr by paper disk diffusion method. Format: functional. Conditions: read-out: IZ.
The subject of experiment [7] is Candida albicans. Put plainly: Antifungal activity against Candida albicans at 100 ug/ml after 48 hr by agar streak dilution method. Format: functional, organism-based.
In experiment [8] the test system is Aspergillus fumigatus. Put plainly: Antifungal activity against Aspergillus fumigatus at 100 ug/ml after 48 hr by agar streak dilution method. Format: functional, organism-based.
In experiment [9] the test system is Aspergillus clavatus. Put plainly: Antifungal activity against Aspergillus clavatus after 48 hr by agar streak dilution method. Format: functional.
The test system of experiment [10] is Aspergillus niger. Put plainly: Antifungal activity against Aspergillus niger after 48 hr by agar streak dilution method. Format: functional.
Experiment [11] concerns Pseudomonas aeruginosa. Put plainly: Antibacterial activity against Pseudomonas aeruginosa after 24 hr by agar streak dilution method. Format: functional.
In experiment [12] the test system is Escherichia coli. Put plainly: Antibacterial activity against Escherichia coli after 24 hr by agar streak dilution method. Format: functional.
For experiment [13], the system named is Shigella flexneri. Put plainly: Antibacterial activity against Shigella flexneri at 100 ug/disc after 24 hr by paper disk diffusion method. Format: functional. The note with it: read-out: IZ.
Experiment [14] deals with Proteus vulgaris. Put plainly: Antibacterial activity against Proteus vulgaris at 100 ug/disk after 24 hr by paper disk diffusion method. Format: functional. Conditions: read-out: IZ.
For experiment [15], the system named is Salmonella typhi. Put plainly: Antibacterial activity against Salmonella enterica subsp. enterica serovar Typhi at 100 ug/disk after 24 hr by paper disk diffusion method. Format: functional. Conditions: read-out: IZ.
Experiment [16] concerns Pseudomonas aeruginosa. Put plainly: Antibacterial activity against Pseudomonas aeruginosa at 100 ug/disk after 24 hr by paper disk diffusion method. Format: functional. The note with it: read-out: IZ.
For experiment [17], the system named is Escherichia coli. Put plainly: Antibacterial activity against Escherichia coli at 100 ug/disk after 24 hr by paper disk diffusion method. Format: functional. The note with it: read-out: IZ.
Experiment [18] deals with Bacillus subtilis. Put plainly: Antibacterial activity against Bacillus subtilis after 24 hr by agar streak dilution method. Format: functional.
In experiment [19] the test system is Staphylococcus aureus. Put plainly: Antibacterial activity against Staphylococcus aureus after 24 hr by agar streak dilution method. Format: functional.
The test system of experiment [20] is Bacillus subtilis. Put plainly: Antibacterial activity against Bacillus subtilis at 100 ug/disk after 24 hr by paper disk diffusion method. Format: functional. Conditions: read-out: IZ.
Experiment [21] concerns Staphylococcus aureus. Put plainly: Antibacterial activity against Staphylococcus aureus at 100 ug/disc after 24 hr by paper disk diffusion method. Format: functional. The note with it: read-out: IZ.
Experiment [22] deals with Pseudomonas aeruginosa. Put plainly: Antibacterial activity against Pseudomonas aeruginosa at 100 ug/ml after 24 hr by agar streak dilution method. Format: functional, organism-based.
Experiment [23] deals with Klebsiella pneumoniae. Put plainly: Antibacterial activity against Klebsiella pneumoniae after 24 hr by agar streak dilution method. Format: functional.
The test system of experiment [24] is Aspergillus fumigatus. Put plainly: Antifungal activity against Aspergillus fumigatus at 100 ug/disc after 48 hr by paper disk diffusion method. Format: functional. The note with it: read-out: IZ.
Experiment [25] has as its system Proteus vulgaris. Put plainly: Antibacterial activity against Proteus vulgaris at 100 ug/ml after 24 hr by agar streak dilution method. Format: functional, organism-based.
The subject of experiment [26] is Klebsiella pneumoniae. Put plainly: Antibacterial activity against Klebsiella pneumoniae at 100 ug/disk after 24 hr by paper disk diffusion method. Format: functional. Conditions: read-out: IZ.
Experiment [27] relates to Aspergillus fumigatus. Put plainly: Antifungal activity against Aspergillus fumigatus after 48 hr by agar streak dilution method. Format: functional.
Experiment [28] concerns Candida albicans. Put plainly: Antifungal activity against Candida albicans at 100 ug/disk after 48 hr by paper disk diffusion method. Format: functional. The note with it: read-out: IZ.
Experiment [29] has as its system Candida albicans. Put plainly: Antifungal activity against Candida albicans after 48 hr by agar streak dilution method. Format: functional.
Experiment [30] relates to Shigella flexneri. Put plainly: Antibacterial activity against Shigella flexneri at 100 ug/ml after 24 hr by agar streak dilution method. Format: functional, organism-based.
The subject of experiment [31] is Salmonella typhi. Put plainly: Antibacterial activity against Salmonella enterica subsp. enterica serovar Typhi at 100 ug/ml after 24 hr by agar streak dilution method. Format: functional, organism-based.
Experiment [32] relates to Escherichia coli. Put plainly: Antibacterial activity against Escherichia coli at 100 ug/ml after 24 hr by agar streak dilution method. Format: functional, organism-based.

As a reminder, the MIC is the smallest concentration in the dilution series that meets the test's criterion for growth inhibition. Low readings indicate a more susceptible organism, high ones a less susceptible organism. As to `COc1ccc(/C=N/c2ccc(Nc3nc(Oc4ccc5c(C)cc(=O)oc5c4)nc(N(C)C)n3)cc2)cc1OC`, the outcome in [1], in experiment [7] and in experiment [8] was inactive. For the same compound, the minimum inhibitory concentration (MIC) in experiment [2], in experiment [3], in experiment [4], in [9], in experiment [10] and in experiment [11] was 100 µg/mL (≈ 181 µM) in each case. Besides, the MIC in experiment [12] is 100 µg/mL (≈ 181 µM); in experiment [18] it was 100 µg/mL (≈ 181 µM); in [19], 50 µg/mL (≈ 90.5 µM). Further, the zone of inhibition at 100 µg/disc in [5] was below 10 mm; in experiment [6], 12 mm; in [13], 13 mm; in [14] it was below 10 mm; in experiment [15], 12 mm; in experiment [16], 10 mm. The zone of inhibition at 100 µg/disc in [17] was below 10 mm; in experiment [20], 12 mm; in experiment [21], 16 mm.
Turning to `Cc1cc(=O)oc2cc(Oc3nc(Nc4ccc(/N=C/c5ccc([N+](=O)[O-])cc5)cc4)nc(N(C)C)n3)ccc12`, the result in [22], in [25] and in experiment [7] was inactive. The MIC in experiment [2], in experiment [4], in experiment [23], in [9], in experiment [10] and in [12] was 100 µg/mL (≈ 186 µM) each time. The MIC in [18], in experiment [19] and in [27] was 100 µg/mL (≈ 186 µM) each time. Also, the zone of inhibition at 100 µg/disc in experiment [5] was 13 mm; in experiment [24], below 10 mm; in [6], below 10 mm; in experiment [13], below 10 mm; in [15], 13 mm; in [26], below 10 mm. Also, the zone of inhibition at 100 µg/disc in experiment [17], in experiment [20] and in [21] was below 10 mm each time.
Take `Cc1cc(=O)oc2cc(Oc3nc(Nc4ccc(N5C(=O)CSC5c5ccccc5)cc4)nc(N(C)C)n3)ccc12` (configuration not stated): the MIC in experiment [2], in [3], in [4], in [23], in experiment [29] and in experiment [9] was 100 µg/mL (≈ 176 µM) each time. The MIC in experiment [10], in experiment [11], in [12], in experiment [18] and in experiment [19] was 100 µg/mL (≈ 176 µM) in each case. Besides, the zone of inhibition at 100 µg/disc in experiment [28] stood at 10 mm; in experiment [5], 13 mm; in experiment [6], 11 mm; in experiment [13], 12 mm; in [14], 10 mm; in experiment [15], 11 mm. In addition, the zone of inhibition at 100 µg/disc was below 10 mm in experiment [26]; 15 mm in experiment [16]; 14 mm in experiment [17]; 13 mm in [20]; 12 mm in experiment [21]. In addition, the result in [8] was inactive.
As to `Cc1cc(=O)oc2cc(Oc3nc(Nc4ccc(/N=C/c5ccccc5)cc4)nc(N(C)C)n3)ccc12`, the outcome in experiment [1], in experiment [30], in experiment [25], in experiment [7] and in experiment [8] was inactive. Besides, the MIC in experiment [4], in [9], in experiment [10], in experiment [11], in experiment [12] and in experiment [18] was 100 µg/mL (≈ 203 µM) each time. In experiment [19], this compound returned an MIC of 100 µg/mL (≈ 203 µM). Moreover, the zone of inhibition at 100 µg/disc was below 10 mm in [5]; below 10 mm in experiment [6]; below 10 mm in experiment [15]; 12 mm in experiment [16]; below 10 mm in [17]; 10 mm in experiment [20]. For the same compound, in experiment [21], the zone of inhibition at 100 µg/disc turned out to be 11 mm.
Consider `Cc1cc(=O)oc2cc(Oc3nc(Nc4ccc(/N=C/c5ccccc5C(=O)O)cc4)nc(N(C)C)n3)ccc12`, for which the outcome in experiment [31], in experiment [32], in experiment [25] and in experiment [7] was inactive. Moreover, the MIC in experiment [2], in [23], in [9], in [10], in experiment [11] and in [18] was 100 µg/mL (≈ 186 µM) each time. Also, the MIC in [19] and in experiment [27] was 100 µg/mL (≈ 186 µM) each time. For the same compound, the zone of inhibition at 100 µg/disc is below 10 mm in experiment [5]; below 10 mm in experiment [24]; 10 mm in experiment [6]; 11 mm in experiment [13]; below 10 mm in experiment [26]; 11 mm in experiment [16]. Moreover, the zone of inhibition at 100 µg/disc in experiment [20] was found to be 11 mm; in experiment [21], 13 mm.
Turning to `Cc1cc(=O)oc2cc(Oc3nc(Nc4ccc(/N=C/c5ccccc5Br)cc4)nc(N(C)C)n3)ccc12`, the MIC came out at 100 µg/mL (≈ 175 µM) in experiment [3]; 100 µg/mL (≈ 175 µM) in [4]; 100 µg/mL (≈ 175 µM) in [23]; 50 µg/mL (≈ 87.5 µM) in experiment [29]; 50 µg/mL (≈ 87.5 µM) in experiment [9]; 100 µg/mL (≈ 175 µM) in experiment [10]. The MIC is 50 µg/mL (≈ 87.5 µM) in experiment [11]; 100 µg/mL (≈ 175 µM) in experiment [12]; 50 µg/mL (≈ 87.5 µM) in [18]; 100 µg/mL (≈ 175 µM) in experiment [19]; 25 µg/mL (≈ 43.7 µM) in experiment [27]. The zone of inhibition at 100 µg/disc in experiment [28] was 19 mm; in experiment [5], 18 mm; in [24], 20 mm; in experiment [6], 15 mm; in experiment [14], 13 mm; in experiment [15], below 10 mm. For the same compound, the zone of inhibition at 100 µg/disc is below 10 mm in experiment [26]; 18 mm in experiment [16]; 14 mm in [17]; 16 mm in experiment [20]; 13 mm in [21]. Besides, the result in experiment [30] was inactive.
